Read-outs that look alike come from different tables or passages of the source.
Assays:
[1] = system: Colletotrichum gloeobosporioids; assay: Bactericidal (fungicidal) activity by microdilution; type: cell-based
[2] = system: Fusarium culmorum; assay: as above; type: cell-based
[3] = system: Rhizoctonia solani; assay: as above; type: cell-based
[4] = system: Magnaporthe oryzae; type: cell-based
[5] = system: Pythium aphanidermatum; assay: Bactericidal (fungicidal) activity by microdilution; type: cell-based
[6] = system: Septoria nodorum Berk.; assay: as above; type: cell-based
[7] = system: Aphiscraccivora; assay: Insecticidal activity, dipping method; type: in vivo
Summary of the method: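 Aphids tested by dipping in ethanol-dissolved compound diluted to 500, 250 or 125 mg/L with 0.1 mL/L Tween-80, two replicates plus blank control. Mortality scored on a 0/3/5/7/9 scale for 0–30, 30–50, 50–70, 70–90 and 90–100%.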

[8] = system: Alternaria kikuchiana; assay: Bactericidal (fungicidal) activity by microdilution; type: cell-based
[9] = system: Leptosphaeria biglobosa; assay: as above; type: cell-based
[10] = system: Verticillium dahliae.kieb.; assay: as above; type: cell-based
[11] = system: Botrytis cinerea; assay: as above; type: cell-based
[12] = system: Corynespora leaf spot of tomato; assay: as above; type: cell-based
[13] = system: Thanatephorus cucumeris; assay: as above; type: cell-based
[14] = system: Heliothis armigera; assay: Insecticidal activity, artificial feed surface coating method; type: in vivo; details: Helicoverpa armigera, read-out: Insecticidal activity (mortality rate grade) Heliothis armigera
Summary of the method: (§1)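 Artificial diet in 24-well plates, surface-coated with test solution at 500, 250 and 125 mg/L. Each concentration was tested in two replicates (Rep1, Rep2).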

[15] = system: Plutella xylostella; assay: as above; type: in vivo; details: Plutella xylostella, read-out: Insecticidal activity (mortality rate grade) Plutella xylostella
Summary of the method: as §1

[16] = system: Fusarium oxysporum f. sp. Niveum; assay: Bactericidal (fungicidal) activity by microdilution; type: cell-based

COC(=O)Nc1nc2ccccc2n1C/C=C/S(=O)(=O)O [III-2]
Fungicidal activity (antibacterial rate grade) Colletotrichum gloeobosporioids ([1]; 12.5 mg/L): 9 (The antibacterial rate of 90˜100% could be set as 9 if the target has totally no growth)
Fungicidal activity (antibacterial rate grade) Colletotrichum gloeobosporioids ([1]; 25 mg/L): 9 (The antibacterial rate of 90˜100% could be set as 9 if the target has totally no growth)
Fungicidal activity (antibacterial rate grade) Colletotrichum gloeobosporioids ([1]; 50 mg/L): 9 (The antibacterial rate of 90˜100% could be set as 9 if the target has totally no growth)
Fungicidal activity (antibacterial rate grade) Colletotrichum gloeobosporioids ([1]; 100 mg/L): 9 (The antibacterial rate of 90˜100% could be set as 9 if the target has totally no growth)
Fungicidal activity (antibacterial rate grade) Fusarium culmorum ([2]; 12.5 mg/L): 7 (The antibacterial rate of 70˜90% could be set as 7 if the target has small amounts of growth)
Fungicidal activity (antibacterial rate grade) Fusarium culmorum ([2]; 25 mg/L): 9 (The antibacterial rate of 90˜100% could be set as 9 if the target has totally no growth)
Fungicidal activity (antibacterial rate grade) Fusarium culmorum ([2]; 50 mg/L): 9 (The antibacterial rate of 90˜100% could be set as 9 if the target has totally no growth)
Fungicidal activity (antibacterial rate grade) Fusarium culmorum ([2]; 100 mg/L): 9 (The antibacterial rate of 90˜100% could be set as 9 if the target has totally no growth)
Fungicidal activity (antibacterial rate grade) Rhizoctonia solani ([3]; 12.5 mg/L): 3 (The antibacterial rate of 0˜30% could be set as 3 if the growth of the target is normal and consistent with that of the blank control)
Fungicidal activity (antibacterial rate grade) Rhizoctonia solani ([3]; 25 mg/L): 3 (The antibacterial rate of 0˜30% could be set as 3 if the growth of the target is normal and consistent with that of the blank control)
Fungicidal activity (antibacterial rate grade) Rhizoctonia solani ([3]; 50 mg/L): 3 (The antibacterial rate of 0˜30% could be set as 3 if the growth of the target is normal and consistent with that of the blank control)
Fungicidal activity (antibacterial rate grade) Rhizoctonia solani ([3]; 100 mg/L): 3 (The antibacterial rate of 0˜30% could be set as 3 if the growth of the target is normal and consistent with that of the blank control)
Fungicidal activity (antibacterial rate grade) Magnaporthe oryzae ([4]; 12.5 mg/L): 9 (The antibacterial rate of 90˜100% could be set as 9 if the target has totally no growth)
Fungicidal activity (antibacterial rate grade) Magnaporthe oryzae ([4]; 25 mg/L): 9 (The antibacterial rate of 90˜100% could be set as 9 if the target has totally no growth)
Fungicidal activity (antibacterial rate grade) Magnaporthe oryzae ([4]; 50 mg/L): 9 (The antibacterial rate of 90˜100% could be set as 9 if the target has totally no growth)
Fungicidal activity (antibacterial rate grade) Magnaporthe oryzae ([4]; 100 mg/L): 9 (The antibacterial rate of 90˜100% could be set as 9 if the target has totally no growth)
Fungicidal activity (antibacterial rate grade) Pythium aphanidematum ([5]; 12.5 mg/L): 3 (The antibacterial rate of 0˜30% could be set as 3 if the growth of the target is normal and consistent with that of the blank control)
Fungicidal activity (antibacterial rate grade) Pythium aphanidematum ([5]; 25 mg/L): 3 (The antibacterial rate of 0˜30% could be set as 3 if the growth of the target is normal and consistent with that of the blank control)
Fungicidal activity (antibacterial rate grade) Pythium aphanidematum ([5]; 50 mg/L): 3 (The antibacterial rate of 0˜30% could be set as 3 if the growth of the target is normal and consistent with that of the blank control)
Fungicidal activity (antibacterial rate grade) Pythium aphanidematum ([5]; 100 mg/L): 3 (The antibacterial rate of 0˜30% could be set as 3 if the growth of the target is normal and consistent with that of the blank control)
Fungicidal activity (antibacterial rate grade) Septoria nodorum Berk. ([6]; 12.5 mg/L): 9 (The antibacterial rate of 90˜100% could be set as 9 if the target has totally no growth)
Fungicidal activity (antibacterial rate grade) Septoria nodorum Berk. ([6]; 25 mg/L): 9 (The antibacterial rate of 90˜100% could be set as 9 if the target has totally no growth)
Fungicidal activity (antibacterial rate grade) Septoria nodorum Berk. ([6]; 50 mg/L): 9 (The antibacterial rate of 90˜100% could be set as 9 if the target has totally no growth)
Fungicidal activity (antibacterial rate grade) Septoria nodorum Berk. ([6]; 100 mg/L): 9 (The antibacterial rate of 90˜100% could be set as 9 if the target has totally no growth)
Insecticidal activity (mortality rate grade) Aphiscraccivora ([7]; 125 mg/L test solution): 0 (mortality rate of 0˜30%)
Insecticidal activity (mortality rate grade) Aphiscraccivora ([7]; 250 mg/L test solution): 0 (mortality rate of 0˜30%)
Insecticidal activity (mortality rate grade) Aphiscraccivora ([7]; 500 mg/L test solution): 0 (mortality rate of 0˜30%)
Fungicidal activity (antibacterial rate grade) Alternaria kikuchiana ([8]; 12.5 mg/L): 3 (The antibacterial rate of 0˜30% could be set as 3 if the growth of the target is normal and consistent with that of the blank control)
Fungicidal activity (antibacterial rate grade) Alternaria kikuchiana ([8]; 25 mg/L): 3 (The antibacterial rate of 0˜30% could be set as 3 if the growth of the target is normal and consistent with that of the blank control)
Fungicidal activity (antibacterial rate grade) Alternaria kikuchiana ([8]; 50 mg/L): 3 (The antibacterial rate of 0˜30% could be set as 3 if the growth of the target is normal and consistent with that of the blank control)
Fungicidal activity (antibacterial rate grade) Alternaria kikuchiana ([8]; 100 mg/L): 3 (The antibacterial rate of 0˜30% could be set as 3 if the growth of the target is normal and consistent with that of the blank control)
Fungicidal activity (antibacterial rate grade) Leptosphaeria biglobosa ([9]; 12.5 mg/L): 9 (The antibacterial rate of 90˜100% could be set as 9 if the target has totally no growth)
Fungicidal activity (antibacterial rate grade) Leptosphaeria biglobosa ([9]; 25 mg/L): 9 (The antibacterial rate of 90˜100% could be set as 9 if the target has totally no growth)
Fungicidal activity (antibacterial rate grade) Leptosphaeria biglobosa ([9]; 50 mg/L): 9 (The antibacterial rate of 90˜100% could be set as 9 if the target has totally no growth)
Fungicidal activity (antibacterial rate grade) Leptosphaeria biglobosa ([9]; 100 mg/L): 9 (The antibacterial rate of 90˜100% could be set as 9 if the target has totally no growth)
Fungicidal activity (antibacterial rate grade) Verticillium dahliae. kieb. ([10]; 12.5 mg/L): 9 (The antibacterial rate of 90˜100% could be set as 9 if the target has totally no growth)
Fungicidal activity (antibacterial rate grade) Verticillium dahliae. kieb. ([10]; 25 mg/L): 9 (The antibacterial rate of 90˜100% could be set as 9 if the target has totally no growth)
Fungicidal activity (antibacterial rate grade) Verticillium dahliae. kieb. ([10]; 50 mg/L): 9 (The antibacterial rate of 90˜100% could be set as 9 if the target has totally no growth)
Fungicidal activity (antibacterial rate grade) Verticillium dahliae. kieb. ([10]; 100 mg/L): 9 (The antibacterial rate of 90˜100% could be set as 9 if the target has totally no growth)
Fungicidal activity (antibacterial rate grade) Botrytis cinerea ([11]; 12.5 mg/L): 3 (The antibacterial rate of 0˜30% could be set as 3 if the growth of the target is normal and consistent with that of the blank control)
Fungicidal activity (antibacterial rate grade) Botrytis cinerea ([11]; 25 mg/L): 3 (The antibacterial rate of 0˜30% could be set as 3 if the growth of the target is normal and consistent with that of the blank control)
Fungicidal activity (antibacterial rate grade) Botrytis cinerea ([11]; 50 mg/L): 3 (The antibacterial rate of 0˜30% could be set as 3 if the growth of the target is normal and consistent with that of the blank control)
Fungicidal activity (antibacterial rate grade) Botrytis cinerea ([11]; 100 mg/L): 3 (The antibacterial rate of 0˜30% could be set as 3 if the growth of the target is normal and consistent with that of the blank control)
Fungicidal activity (antibacterial rate grade) Corynespora leaf spot of tomato ([12]; 12.5 mg/L): 3 (The antibacterial rate of 0˜30% could be set as 3 if the growth of the target is normal and consistent with that of the blank control)
Fungicidal activity (antibacterial rate grade) Corynespora leaf spot of tomato ([12]; 25 mg/L): 3 (The antibacterial rate of 0˜30% could be set as 3 if the growth of the target is normal and consistent with that of the blank control)
Fungicidal activity (antibacterial rate grade) Corynespora leaf spot of tomato ([12]; 50 mg/L): 7 (The antibacterial rate of 70˜90% could be set as 7 if the target has small amounts of growth)
Fungicidal activity (antibacterial rate grade) Corynespora leaf spot of tomato ([12]; 100 mg/L): 7 (The antibacterial rate of 70˜90% could be set as 7 if the target has small amounts of growth)
Fungicidal activity (antibacterial rate grade) Thanatephorus cucumeris ([13]; 12.5 mg/L): 9 (The antibacterial rate of 90˜100% could be set as 9 if the target has totally no growth)
Fungicidal activity (antibacterial rate grade) Thanatephorus cucumeris ([13]; 25 mg/L): 9 (The antibacterial rate of 90˜100% could be set as 9 if the target has totally no growth)
Fungicidal activity (antibacterial rate grade) Thanatephorus cucumeris ([13]; 50 mg/L): 9 (The antibacterial rate of 90˜100% could be set as 9 if the target has totally no growth)
Fungicidal activity (antibacterial rate grade) Thanatephorus cucumeris ([13]; 100 mg/L): 9 (The antibacterial rate of 90˜100% could be set as 9 if the target has totally no growth)
mortality at 125 µg/mL ([14]; 125 mg/L test solution): 0 to 30%
mortality at 250 µg/mL ([14]; 250 mg/L test solution): 0 to 30%
mortality at 500 µg/mL ([14]; 500 mg/L test solution): 0 to 30%
mortality at 125 µg/mL ([15]; 125 mg/L test solution): 0 to 30%
mortality at 250 µg/mL ([15]; 250 mg/L test solution): 0 to 30%
mortality at 500 µg/mL ([15]; 500 mg/L test solution): 0 to 30%
Fungicidal activity (antibacterial rate grade) Fusarium oxysporum f. sp. Niveum ([16]; 12.5 mg/L): 9 (The antibacterial rate of 90˜100% could be set as 9 if the target has totally no growth)
Fungicidal activity (antibacterial rate grade) Fusarium oxysporum f. sp. Niveum ([16]; 25 mg/L): 9 (The antibacterial rate of 90˜100% could be set as 9 if the target has totally no growth)
Fungicidal activity (antibacterial rate grade) Fusarium oxysporum f. sp. Niveum ([16]; 50 mg/L): 9 (The antibacterial rate of 90˜100% could be set as 9 if the target has totally no growth)
Fungicidal activity (antibacterial rate grade) Fusarium oxysporum f. sp. Niveum ([16]; 100 mg/L): 9 (The antibacterial rate of 90˜100% could be set as 9 if the target has totally no growth)

From patent publication US20250084061A1, “SULFONYL FUNCTIONAL COMPOUND, METHODS AND USES THEREOF” (Hubei Biopesticide Engineering Research Centre, priority 2023, published 2025)
